Data on 1 compound can be found in patent US20220119767A1, “NATURAL KILLER CELL INDUCED CELLULAR VESICLES FOR CANCER THERAPY” (The Regents of the University of California, priority 2019, published 2022).

The subject of this data set is K562 leukemia cancer cells.

Procedure: DOX-loaded ICVs were tested for cytotoxicity to K562 cancer cells compared to free DOX, as assessed by using an MTT assay (see FIG. 5).

On to `COc1cccc2c1C(=O)c1c(O)c3c(c(O)c1C2=O)C[C@@](O)(C(=O)CO)C[C@@H]3O[C@H]1C[C@H](N)[C@H](O)[C@H](C)O1` [DOX, doxorubicin], for which the “order of K562 cytotoxicity” value was “DOX>NK92 ICVs-DOX>K562 ICVs-DOX”.
